# The source made the active and inactive calls.
# Legend:
# Mu-type opioid receptor = Mu-type opioid receptor (Homo sapiens, UniProt P35372); format: functional, cell-based;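 further: U2OS cells with beta-arrestin recruitment to OPRM1 by beta-gal complementation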
# [1] = target: 5-hydroxytryptamine receptor 2A (Mus musculus, UniProt P35363); format: functional, cell-based;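 further: CHO-K1 cells with tagged receptor and beta-arrestin; agonist potency measured as compound-induced activation of the receptor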
# H9c2 = test: cells; format: functional, cell-based; conditions: Rattus norvegicus, H9c2, Myocardium;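 further: confirmatory concentration-response retest of ultra-high-throughput screening hits for modulation of myocardial damage; cell death induced by hydrogen peroxide oxidative stress; compound pretreatment for 60 min then peroxide exposure for 2 h; potency is for protecting the cells against peroxide damage rather than for killing them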
# Albumin = Albumin (Bos taurus, UniProt P02769); test: Counterscreen for inhibitors of T-cell receptor (TCR)-CD3 interaction: Fluorescence-based biochemical high throughput dose response assay to identify inhibitors of T-cell receptor (TCR)-CD3 interaction using a TAMRA-labeled BSA probe.; format: functional
# [2] = target: Heat shock protein HSP 90-alpha (Homo sapiens, UniProt P07900); format: functional, organism-based
# Vero = test: cells; format: functional; conditions: Chlorocebus sabaeus
# [3] = target: T1, Heat shock factor protein 1 (Mus musculus, UniProt P38532); test: HSF1 potentiators in luciferase reporter cells, confirmation, cell-based, NIH3T3, luminescence, dose retest (AID 435004); format: functional;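 further: stress induced by proteasome inhibitor MG132 added 30 min after compound; luciferase reporter driven by HSF1 response element in NIH3T3 cells; actives raise luminescence as potentiators of the MG132 stress response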
# T1 sequence (P38532 whole entry): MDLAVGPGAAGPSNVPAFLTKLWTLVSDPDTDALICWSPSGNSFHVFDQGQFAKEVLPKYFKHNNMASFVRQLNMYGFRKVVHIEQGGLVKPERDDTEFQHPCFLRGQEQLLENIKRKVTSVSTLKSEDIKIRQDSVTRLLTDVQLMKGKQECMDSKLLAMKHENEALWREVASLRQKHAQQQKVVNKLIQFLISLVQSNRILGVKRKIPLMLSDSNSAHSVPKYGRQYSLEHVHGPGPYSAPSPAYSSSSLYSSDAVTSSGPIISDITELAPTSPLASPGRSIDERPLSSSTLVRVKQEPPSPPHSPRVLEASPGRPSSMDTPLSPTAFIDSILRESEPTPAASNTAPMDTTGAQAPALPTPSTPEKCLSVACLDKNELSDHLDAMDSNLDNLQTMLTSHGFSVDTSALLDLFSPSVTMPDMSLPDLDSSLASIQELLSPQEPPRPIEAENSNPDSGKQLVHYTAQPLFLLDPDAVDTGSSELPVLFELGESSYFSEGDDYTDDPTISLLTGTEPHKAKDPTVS
# [4] = P. falciparum ATP4 D1247Y mutant growth inhibitors, dose response, NITD609-resistant line, SYBR Green, dry powder (AID 1159571); format: functional, cell-based;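 further: parasites synchronized at ring stage by sorbitol before testing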
# [5] = P. falciparum Dd2 growth inhibitors, dose response, SYBR Green, dry powder samples (AID 1159566); format: functional, cell-based;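 further: potency for growth inhibition with lower SYBR green DNA signal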
# [6] = P. falciparum 3D7-ScDHODH growth inhibitors, dose response, SYBR Green, dry powder samples (AID 1159570); format: functional, cell-based;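 further: parasite growth measured after 72 hours of compound exposure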
# [7] = P. falciparum Dd2 growth inhibitors, dose response, SYBR Green, cherry-picked samples (AID 1159567); format: functional, cell-based
# [8] = P. falciparum Dd2 growth inhibitors, dose response, SYBR Green, dry powder samples, set 9 (AID 1159568); format: functional, cell-based
# [9] = THP-1 cell cytotoxicity, dose response, cytotoxicity control for Vif-APOBEC3G degradation inhibitor project, THP-1 cells (AID 1117359); format: functional; conditions: Human immunodeficiency virus 1, THP-1
# [10] = target: T2, Zinc finger protein mex-5 (Caenorhabditis elegans, UniProt Q9XUB2); test: MEX-5/TCR-2 RNA interaction inhibitors, dose response, biochemical, C. elegans, fluorescence polarization (AID 1960)
# T2 sequence (Q9XUB2 whole entry): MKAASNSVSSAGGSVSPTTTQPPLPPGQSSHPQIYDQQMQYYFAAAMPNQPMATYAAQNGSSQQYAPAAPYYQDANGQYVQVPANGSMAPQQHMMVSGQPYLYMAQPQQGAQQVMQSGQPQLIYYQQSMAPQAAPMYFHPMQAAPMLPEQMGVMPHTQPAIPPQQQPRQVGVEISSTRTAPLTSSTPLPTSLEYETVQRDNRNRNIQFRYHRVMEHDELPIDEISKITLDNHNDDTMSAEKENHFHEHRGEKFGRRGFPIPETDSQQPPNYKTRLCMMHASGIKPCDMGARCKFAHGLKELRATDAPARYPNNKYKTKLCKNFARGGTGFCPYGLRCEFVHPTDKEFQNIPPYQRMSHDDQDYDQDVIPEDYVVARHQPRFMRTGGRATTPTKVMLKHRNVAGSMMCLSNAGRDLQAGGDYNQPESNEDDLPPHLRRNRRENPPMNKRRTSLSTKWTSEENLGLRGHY
# HEK293 [11] = test: cells; conditions: Homo sapiens
# [12] = target: T3, RNA-binding protein pos-1 (Caenorhabditis elegans, UniProt G5EF15); test: inhibitors of POS-1/mex-3 RNA binding, dose response, biochemical, fluorescence polarization (AID 1964);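 further: purified POS-1 fused to maltose binding protein made in E. coli; potency of compounds blocking POS-1 binding to fluorescent RNA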
# T3 sequence (G5EF15 whole entry): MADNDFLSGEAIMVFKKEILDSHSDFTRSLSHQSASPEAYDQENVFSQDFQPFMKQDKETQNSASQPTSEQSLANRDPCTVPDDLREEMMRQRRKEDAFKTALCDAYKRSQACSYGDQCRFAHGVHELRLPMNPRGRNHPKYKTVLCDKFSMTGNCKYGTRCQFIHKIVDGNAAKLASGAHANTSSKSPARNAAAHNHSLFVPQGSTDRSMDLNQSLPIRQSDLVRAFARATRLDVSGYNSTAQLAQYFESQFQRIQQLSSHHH
# Paired box protein Pax-8 = Paired box protein Pax-8 (Homo sapiens, UniProt Q06710); test: inhibitors of PAX8-driven TPO luciferase reporter, dose response, RMG-I cells, cherry-pick (AID 687027); format: functional, cell-based;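 further: luciferase reporter driven by Pax8 target thyroperoxidase promoter measured by SteadyGlo luminescence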
# HEK293 [13] = test: cells; conditions: Homo sapiens; remark: listed apart in the source
# Cytochrome P450 2C9 = Cytochrome P450 2C9 (Homo sapiens, UniProt P11712)
# Sequence of Cytochrome P450 2C9 (P11712 whole entry): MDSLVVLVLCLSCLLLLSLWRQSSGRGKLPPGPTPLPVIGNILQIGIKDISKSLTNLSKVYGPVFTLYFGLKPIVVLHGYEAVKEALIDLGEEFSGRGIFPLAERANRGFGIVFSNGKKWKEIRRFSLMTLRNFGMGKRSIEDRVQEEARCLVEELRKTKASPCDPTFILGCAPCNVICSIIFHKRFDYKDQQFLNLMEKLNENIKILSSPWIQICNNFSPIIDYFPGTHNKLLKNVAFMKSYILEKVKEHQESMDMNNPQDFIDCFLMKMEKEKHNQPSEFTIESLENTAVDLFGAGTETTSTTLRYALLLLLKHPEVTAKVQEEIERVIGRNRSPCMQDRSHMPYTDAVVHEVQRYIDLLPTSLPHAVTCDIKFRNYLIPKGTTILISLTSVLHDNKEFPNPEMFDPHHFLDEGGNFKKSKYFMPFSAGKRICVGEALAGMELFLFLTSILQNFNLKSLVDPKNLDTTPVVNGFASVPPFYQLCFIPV
# Sequence of 5-hydroxytryptamine receptor 2A (P35363 whole entry): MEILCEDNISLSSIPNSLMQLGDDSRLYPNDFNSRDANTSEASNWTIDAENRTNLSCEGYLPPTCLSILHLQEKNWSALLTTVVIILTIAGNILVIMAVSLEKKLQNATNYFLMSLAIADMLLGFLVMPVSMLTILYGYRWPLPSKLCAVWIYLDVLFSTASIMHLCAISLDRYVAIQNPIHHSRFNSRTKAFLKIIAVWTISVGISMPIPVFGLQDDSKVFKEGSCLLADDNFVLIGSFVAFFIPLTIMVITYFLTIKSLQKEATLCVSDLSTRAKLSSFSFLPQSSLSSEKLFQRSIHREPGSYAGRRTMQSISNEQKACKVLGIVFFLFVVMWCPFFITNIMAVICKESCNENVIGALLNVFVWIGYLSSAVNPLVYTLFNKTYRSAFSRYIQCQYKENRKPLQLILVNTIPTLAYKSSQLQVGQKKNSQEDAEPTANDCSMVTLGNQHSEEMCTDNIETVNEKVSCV
# Sequence of Mu-type opioid receptor (P35372 whole entry): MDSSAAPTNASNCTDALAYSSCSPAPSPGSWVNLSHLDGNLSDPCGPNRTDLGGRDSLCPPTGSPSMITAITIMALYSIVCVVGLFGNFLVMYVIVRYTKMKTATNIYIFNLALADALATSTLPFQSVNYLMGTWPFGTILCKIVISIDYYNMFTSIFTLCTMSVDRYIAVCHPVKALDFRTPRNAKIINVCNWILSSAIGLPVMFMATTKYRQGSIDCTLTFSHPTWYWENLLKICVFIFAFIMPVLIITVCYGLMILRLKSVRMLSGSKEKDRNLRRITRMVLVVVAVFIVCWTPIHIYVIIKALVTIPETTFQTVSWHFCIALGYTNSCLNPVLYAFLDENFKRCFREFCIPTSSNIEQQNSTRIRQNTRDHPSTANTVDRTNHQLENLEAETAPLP
# Sequence of Paired box protein Pax-8 (Q06710 whole entry): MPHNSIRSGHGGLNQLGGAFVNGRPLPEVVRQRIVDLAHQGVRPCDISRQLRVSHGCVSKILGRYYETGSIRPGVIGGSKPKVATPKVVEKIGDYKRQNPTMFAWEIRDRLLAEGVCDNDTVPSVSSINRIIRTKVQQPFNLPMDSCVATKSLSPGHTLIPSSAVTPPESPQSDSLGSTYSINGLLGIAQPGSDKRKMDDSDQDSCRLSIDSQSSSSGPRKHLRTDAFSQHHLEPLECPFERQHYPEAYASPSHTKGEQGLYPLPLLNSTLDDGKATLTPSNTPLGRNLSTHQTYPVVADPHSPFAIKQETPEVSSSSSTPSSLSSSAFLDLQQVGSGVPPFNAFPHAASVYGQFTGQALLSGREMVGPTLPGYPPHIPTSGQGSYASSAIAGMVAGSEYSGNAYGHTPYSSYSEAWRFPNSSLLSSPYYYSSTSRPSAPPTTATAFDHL
# Sequence of Albumin (P02769 whole entry): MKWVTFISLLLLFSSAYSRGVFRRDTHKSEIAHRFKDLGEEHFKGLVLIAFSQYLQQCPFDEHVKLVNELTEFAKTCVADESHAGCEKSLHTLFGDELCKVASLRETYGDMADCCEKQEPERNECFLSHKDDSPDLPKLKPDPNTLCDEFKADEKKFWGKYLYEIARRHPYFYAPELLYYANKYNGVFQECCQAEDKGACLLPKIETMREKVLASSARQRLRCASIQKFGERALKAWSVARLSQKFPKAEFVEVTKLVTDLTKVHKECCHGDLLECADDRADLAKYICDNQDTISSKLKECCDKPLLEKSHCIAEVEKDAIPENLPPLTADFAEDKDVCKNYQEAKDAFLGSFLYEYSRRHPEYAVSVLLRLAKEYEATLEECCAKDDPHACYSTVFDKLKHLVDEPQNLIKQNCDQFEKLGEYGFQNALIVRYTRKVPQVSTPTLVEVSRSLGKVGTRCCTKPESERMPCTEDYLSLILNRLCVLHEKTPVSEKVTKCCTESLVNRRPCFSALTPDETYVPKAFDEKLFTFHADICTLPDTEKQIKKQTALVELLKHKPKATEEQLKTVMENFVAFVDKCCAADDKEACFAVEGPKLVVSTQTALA
smiles,measurement,setting,value
COc1cc(CN2CCN(c3ncccn3)CC2)cc(OC)c1,EC50,Mu-type opioid receptor,92.4 µM (inactive)
same,EC50,[1],0.384 µM (active)
COc1ccc(N(CC(=O)Nc2cccc(C(C)=O)c2)S(=O)(=O)c2ccc(NC(C)=O)cc2)cc1,IC50,H9c2,> 79 µM (inactive)
Cc1ccccc1CN1CCN(C(=O)c2ccco2)CC1,EC50,Mu-type opioid receptor,92.5 µM (inactive)
same,EC50,[1],4.89 µM (active)
CCNC(=O)/C(C#N)=C/c1c(N(Cc2ccccc2)Cc2ccccc2)nc2ccccn2c1=O,IC50,H9c2,> 79 µM (inactive)
c1ccc(COc2ccc(CN3CCN(c4ccccn4)CC3)cc2)cc1,EC50,Mu-type opioid receptor,92.5 µM (inactive)
same,EC50,[1],0.054 µM (active)
Cc1cccc(NC(=O)COc2cccc3c2CCNC3=O)c1,IC50,H9c2,> 79 µM (inactive)
Cc1ccc(O)c(/C=N/NC(=O)COc2ccc3c(C)cc(=O)oc3c2)c1,IC50,Albumin,> 94.1 µM (inactive)
O=C(N/N=C/c1ccccn1)c1cc(-c2ccc(Br)cc2)nc2ccccc12,AC50,[2],2.24 µM (active)
same,CC50,Vero,9.94 µM (active)
same,EC50,[3],4.85 µM (active)
C[C@@H]1CN([C@H](C)CO)C(=O)c2cccc(NC(=O)c3nc4ccccc4s3)c2O[C@H]1CN(C)C(=O)Nc1ccc(C(F)(F)F)cc1,AC50,[4],0.816 µM (active)
same,AC50,[5],1.08 µM (active)
same,AC50,[6],1.18 µM (active)
same,AC50,[7],2.06 µM (active)
COc1ccc([C@H]2C/C=C/C[C@H](C)Oc3ccccc3C(=O)N(C)[C@@H](Cc3ccccc3)C(=O)N2)c(OC)c1.COc1ccc([C@H]2C/C=C\C[C@H](C)Oc3ccccc3C(=O)N(C)[C@@H](Cc3ccccc3)C(=O)N2)c(OC)c1,AC50,[8],1.58 µM (active)
C[C@@H]1CCCCO[C@H](CN(C)S(=O)(=O)c2ccc(F)cc2)[C@H](C)CN([C@H](C)CO)C(=O)c2cc(N(C)C)ccc2O1,AC50,[8],4.45 µM (active)
CS(=O)(=O)N1[C@H](C#N)[C@H](c2ccc(C#Cc3cccc(F)c3)cc2)[C@H]1CO,AC50,[8],10.1 µM (active)
c1ccc2c(c1)NCC1CCCN21 (configuration not stated),CC50,[9],> 40 µM (active)
Cn1cc(C2=C(c3ccc(Cl)cc3Cl)C(=O)NC2=O)c2ccccc21 [SB-216763],EC50,[10],21.5 µM (inconclusive)
same,EC50,HEK293 [11],> 59.6 µM (inactive)
same,EC50,[12],26 µM (active)
same,AC50,Paired box protein Pax-8,4.61 µM (active)
same,EC50,HEK293 [13],> 59.6 µM (inactive)
same,AC50,Cytochrome P450 2C9,31.6 µM (inconclusive)
